Test results published in PMC7337938 (2020).

Assays:
[1] = tested on: Zsw82 (RNA, riboswitch) GGAUACAGGACUGGCGGAUUAGUGGAAGCAACCACGUGGACUGUAUCCGAAGAAAAGCCGACCGCCUGGGCAAAAAUUAGC; assay: ITC and 1H NMR titration; conditions: 50 mM KCl, 25 mM potassium phosphate, 10 mM Mg2+ (NMR); pH 6.2; minor binding-competent population prevented curve fitting
[2] = tested on: Zsw87 (RNA, riboswitch) GGAUACAGGACUGGCGGAUUAGUGGAAGCAACCACGUGGACUGUAUCCGAAGAAAAGCCGACCGCCUGGGCAAAAAUUAGCCCAGG; assay: 1H NMR titration; conditions: 50 mM KCl, 25 mM potassium phosphate, 10 mM Mg2+; pH 6.2; up to 2 eq. ZMP
[3] = tested on: Zsw85 (RNA, riboswitch) GGAUACAGGACUGGCGGAUUAGUGGAAGCAACCACGUGGACUGUAUCCGAAGAAAAGCCGACCGCCUGGGCAAAAAUUAGCCCA; assay: 1H NMR titration; conditions: 50 mM KCl, 25 mM potassium phosphate, 10 mM Mg2+; pH 6.2; up to 2 eq. ZMP
[4] = tested on: Zsw101 (RNA, riboswitch) GGAUACAGGACUGGCGGAUUAGUGGAAGCAACCACGUGGACUGUAUCCGAAGAAAAGCCGACCGCCUGGGCAAAAAUUAGCCCAGGCGGUAUUUAUUUUU; assay: 1H NMR; conditions: 50 mM KCl, 25 mM potassium phosphate, Mg2+; pH 6.2
[5] = tested on: Zsw81 (RNA, riboswitch) GGAUACAGGACUGGCGGAUUAGUGGAAGCAACCACGUGGACUGUAUCCGAAGAAAAGCCGACCGCCUGGGCAAAAAUUAG; assay: ITC; conditions: K+ 50 mM KCl + 25 mM potassium phosphate; Mg2+ 10 mM MgCl2 (assumed from NMR prep); pH 6.2; 60 μM RNA; stoichiometry free, binding-competent fraction 13%
[6] = tested on: Zsw86 (RNA, riboswitch) GGAUACAGGACUGGCGGAUUAGUGGAAGCAACCACGUGGACUGUAUCCGAAGAAAAGCCGACCGCCUGGGCAAAAAUUAGCCCAG; assay: 1H NMR titration; conditions: 50 mM KCl, 25 mM potassium phosphate, 10 mM Mg2+; pH 6.2; up to 2 eq. ZMP
[7] = tested on: Zsw89 (RNA, riboswitch) GGAUACAGGACUGGCGGAUUAGUGGAAGCAACCACGUGGACUGUAUCCGAAGAAAAGCCGACCGCCUGGGCAAAAAUUAGCCCAGGCG; assay: 1H NMR titration; conditions: 50 mM KCl, 25 mM potassium phosphate, 10 mM Mg2+; pH 6.2; up to 2 eq. ZMP
[8] = tested on: Zsw90 (RNA, riboswitch) GGAUACAGGACUGGCGGAUUAGUGGAAGCAACCACGUGGACUGUAUCCGAAGAAAAGCCGACCGCCUGGGCAAAAAUUAGCCCAGGCGG; assay: 1H NMR titration; conditions: 50 mM KCl, 25 mM potassium phosphate, 10 mM Mg2+; pH 6.2; up to 2 eq. ZMP
[9] = tested on: Zsw77 (RNA, riboswitch) GGAUACAGGACUGGCGGAUUAGUGGAAGCAACCACGUGGACUGUAUCCGAAGAAAAGCCGACCGCCUGGGCAAAAA; assay: ITC; conditions: K+ 50 mM KCl + 25 mM potassium phosphate; Mg2+ 10 mM MgCl2 (assumed from NMR prep); pH 6.2; 60 μM RNA; stoichiometry free, binding-competent fraction 53%
[10] = tested on: Zsw77 (RNA, riboswitch) GGAUACAGGACUGGCGGAUUAGUGGAAGCAACCACGUGGACUGUAUCCGAAGAAAAGCCGACCGCCUGGGCAAAAA; assay: 1H NMR titration, U42 imino intensity; conditions: 50 mM KCl, 25 mM potassium phosphate, 10 mM Mg2+; pH 6.2; RNA concentration free in fit, binding-competent fraction 70%
[11] = tested on: Zsw84 (RNA, riboswitch) GGAUACAGGACUGGCGGAUUAGUGGAAGCAACCACGUGGACUGUAUCCGAAGAAAAGCCGACCGCCUGGGCAAAAAUUAGCCC; assay: 1H NMR titration; conditions: 50 mM KCl, 25 mM potassium phosphate, 10 mM Mg2+; pH 6.2; up to 2 eq. ZMP
[12] = tested on: Zsw91 (RNA, riboswitch) GGAUACAGGACUGGCGGAUUAGUGGAAGCAACCACGUGGACUGUAUCCGAAGAAAAGCCGACCGCCUGGGCAAAAAUUAGCCCAGGCGGU; assay: ITC; conditions: K+ (50 mM KCl, 25 mM potassium phosphate); Mg2+ for ITC not stated; pH 6.2; 60 μM RNA, 600 μM ZMP in syringe
[13] = tested on: Zsw81 (RNA, riboswitch) GGAUACAGGACUGGCGGAUUAGUGGAAGCAACCACGUGGACUGUAUCCGAAGAAAAGCCGACCGCCUGGGCAAAAAUUAG; assay: 1H NMR titration, U42 imino intensity; conditions: 50 mM KCl, 25 mM potassium phosphate, 10 mM Mg2+; pH 6.2; RNA concentration free in fit, binding-competent fraction 43%
[14] = tested on: Zsw48+Zsw15 (RNA, riboswitch) GGAUACAGGACUGGCGGAUUAGUGGAAGCAACCACGUGGACUGUAUCCG/GCCGACCGCCUGGGC; assay: 1H NMR; conditions: 50 mM KCl, 25 mM potassium phosphate, 10 mM Mg2+; pH 6.2; 100 μM RNA, 2 eq. ZMP; affinity lower than Zsw77
[15] = tested on: Zsw83 (RNA, riboswitch) GGAUACAGGACUGGCGGAUUAGUGGAAGCAACCACGUGGACUGUAUCCGAAGAAAAGCCGACCGCCUGGGCAAAAAUUAGCC; assay: 1H NMR titration; conditions: 50 mM KCl, 25 mM potassium phosphate, 10 mM Mg2+; pH 6.2; 120 μM RNA; up to 2 eq. ZMP

NC(=O)c1ncn([C@@H]2O[C@H](COP(=O)(O)O)[C@@H](O)[C@H]2O)c1N
binding [1]: weak
binding [2]: no
binding [3]: no
binding [4]: no
dissociation constant [5]: 0.54 µM
binding [6]: no
binding [7]: no
binding [8]: no
dissociation constant [9]: 0.57 µM
dissociation constant [10]: 2.78 µM
binding [11]: no
binding [12]: no
dissociation constant [13]: 2.58 µM
binding [14]: yes
binding [15]: no
